Consider one substance from patent US6987111B2 (Alkermes Controlled Therapeutics, II, priority 2003, dated 2006).

The data set in a line: Pharmacokinetic evaluation in rats following single subcutaneous doses. Conditions: male Sprague-Dawley rats, single SC injection of 40 mg in 0.75 mL aqueous diluent, plasma 2 h to 14 d. The class given is in vivo. Here is the method: Species and Strain: Sprague-Dawley rats. Male; 450+/−50 grams.
Study Groups: 4 Groups. 12 subjects
Route of Injection: Subcutaneous (SC) injection into the interscapular region. Injection Vehicle: Aqueous Diluent: Water, 3% CMC low viscosity, 0.1% Tween 20, in 0.9% NaCl Dose Volumes: Dose suspensions were formulated as follows: • Group A: 20 mg powder in 0.75 mL Diluent • Group B: 40 mg microparticles in 0.75 mL Diluent • Group C: 20 mg powder in 0.75 mL Diluent • Group D: 50 mg powder in 0.75 mL Diluent Blood Collection: Blood samples were collected via a lateral tail vein after anesthesia with Halothane. A syringe without an anticoagulant was used for the blood collection, then the whole blood was transferred to tubes containing K2 EDTA and mixing beads (Microtainer®; MFG# BD365974). The blood samples were processed (the tubes are inverted 15–20 times and centrifuged for 2 minutes at >14,000 g's) to separate plasma. The plasma samples prepared in this manner were transferred to labeled plain tubes (Microtainer®; MFG# BD5962) and stored frozen at <−70° C. Blood Volumes: At least 250 μL blood for each time point during the first 24 hours and 400 μL for each time point thereafter.

With haloperidol pamoate [pamoate salt], the “extended release profile (plasma concentrations over time)” value is recorded as “good to excellent extended release profiles”.
